The values that follow are results of earlier work, collected in patent US6740653B2, “Shelf life extension of microemulsions containing active aza biocide” (ISP Investments Inc., priority 2001, dated 2004).

Take `Cc1ccc(/N=C/N(C)/C=N/c2ccc(C)cc2C)c(C)c1` [Amitraz]: the soluble in water was 1 mg/L.
